From patent publication US11524966B1 (Valo Early Discovery, Inc., priority 2017, dated 2022) come the findings set out here.

pIC50: −log10 of the molar value.

For the experiment, the target named is T1, USP28 (His-tagged USP28-FL-mammalian) (Homo sapiens, UniProt Q96RU2).
T1 construct: Expression of USP28 (1-1077)-TEV-6*His (pTT5 vector); made in house; host or cells: Expi293f cells (pTT5 vector)
T1 sequence (Q96RU2 1-1077): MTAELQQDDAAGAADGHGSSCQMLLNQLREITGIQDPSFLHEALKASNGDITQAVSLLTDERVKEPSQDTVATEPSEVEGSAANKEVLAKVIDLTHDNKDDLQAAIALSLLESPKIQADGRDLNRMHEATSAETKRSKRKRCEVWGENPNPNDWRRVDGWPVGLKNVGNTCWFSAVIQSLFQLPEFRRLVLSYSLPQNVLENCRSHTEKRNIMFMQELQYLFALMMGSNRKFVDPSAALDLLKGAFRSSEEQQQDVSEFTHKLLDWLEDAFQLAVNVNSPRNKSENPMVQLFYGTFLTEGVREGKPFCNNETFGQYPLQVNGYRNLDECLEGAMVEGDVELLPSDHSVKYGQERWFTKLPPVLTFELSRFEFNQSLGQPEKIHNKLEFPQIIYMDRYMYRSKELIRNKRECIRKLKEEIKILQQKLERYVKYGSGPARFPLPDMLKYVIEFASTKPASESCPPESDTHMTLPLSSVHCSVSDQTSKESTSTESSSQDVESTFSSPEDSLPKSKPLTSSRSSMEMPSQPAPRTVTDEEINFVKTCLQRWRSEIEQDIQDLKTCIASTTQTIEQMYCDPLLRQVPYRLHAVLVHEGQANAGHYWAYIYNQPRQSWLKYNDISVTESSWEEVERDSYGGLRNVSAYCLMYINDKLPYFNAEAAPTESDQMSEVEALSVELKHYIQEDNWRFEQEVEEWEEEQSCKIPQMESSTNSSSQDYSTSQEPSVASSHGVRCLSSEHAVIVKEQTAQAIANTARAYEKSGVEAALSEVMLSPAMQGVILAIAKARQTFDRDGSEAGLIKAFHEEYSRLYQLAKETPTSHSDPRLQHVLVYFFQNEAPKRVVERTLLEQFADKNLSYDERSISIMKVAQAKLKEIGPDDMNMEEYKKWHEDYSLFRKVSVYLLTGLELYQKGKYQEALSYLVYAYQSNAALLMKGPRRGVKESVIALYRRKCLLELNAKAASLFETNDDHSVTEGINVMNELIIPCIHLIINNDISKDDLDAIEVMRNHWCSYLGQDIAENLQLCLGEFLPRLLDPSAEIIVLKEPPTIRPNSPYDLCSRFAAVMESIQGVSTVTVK
As to the kind of experiment: Ubiquitin-Rhodamine 110 Assay for USP28 Activity, Example A-1(a). It is filed as biochemical. Conditions: Ubiquitin-Rhodamine 110 assay, Example A-1(a); read-out: USP28 A-1(a) IC50 range. The method in brief: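 Full-length His-tagged human USP28 (1-1077, Expi293f-expressed), […], with 25 nM Ub-Rh110 (<<Km) in pH 8.0 Tris buffer with BME, BGG, Triton X-100. 10-point dilutions (25 μM-1.3 nM), 45 min at room temperature, citric acid stop, fluorescence 485/535 nm; IC50 by 4-parameter fit.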
For orientation: pIC50 means −log10 of the IC50, conventionally taken in molar units. In the case of `COC[C@H]1CN(c2ccc3c(c2)OC[C@H](NC(=O)c2sc4nc(C)ccc4c2N)C3)C[C@H]1N` [Example 162, 3-amino-N-[(3R)-7-[(3S,4S)-3-amino-4-(methoxymethyl)pyrrolidin-1-yl]-3,4-dihydro-2H-1-benzopyran-3-yl]-6-methylthieno[2,3-b]pyridine-2-carboxamide], the pIC50 was 7.30 to 9.00.

`Cc1ccc2c(N)c(C(=O)N[C@H]3COc4cc(N5CC6CNCC(C5)O6)c(F)cc4C3)sc2n1` [Example 106, 3-amino-N-[(3R)-6-fluoro-7-{9-oxa-3,7-diazabicyclo[3.3.1]nonan-3-yl}-3,4-dihydro-2H-1-benzopyran-3-yl]-6-methylthieno[2,3-b]pyridine-2-carboxamide]: the pIC50 was 7.30 to 9.00.

Turning to `Cc1cnc2c(N)c(C(=O)N[C@H]3COc4c(F)c(N5CC6CCC(C5)N6)cc(F)c4C3)sc2n1` [Example 107, 7-amino-N-[(3R)-7-{3,8-diazabicyclo[3.2.1]octan-3-yl}-5,8-difluoro-3,4-dihydro-2H-1-benzopyran-3-yl]-3-methylthieno[2,3-b]pyrazine-6-carboxamide], the negative-log IC50 (pIC50) was 7.30 to 9.00.

Turning to `COc1ccc2c(N)c(C(=O)N[C@H]3CCc4cc(N5C[C@H](OC)[C@@H](N)C5)ccc4C3)sc2n1` [Example 134, 3-amino-N-[(2S)-6-[(3S,4S)-3-amino-4-methoxypyrrolidin-1-yl]-1,2,3,4-tetrahydronaphthalen-2-yl]-6-methoxythieno[2,3-b]pyridine-2-carboxamide], the pIC50 is 5.70 to 6.70.

In the case of `CCn1ccc2cc(C(=O)N[C@@H]3CCc4cc(N5C[C@H](OC)[C@@H](N)C5)cc(F)c4C3)nnc21` [Example 139, N-[(2R)-6-[(3S,4S)-3-amino-4-methoxypyrrolidin-1-yl]-8-fluoro-1,2,3,4-tetrahydronaphthalen-2-yl]-7-ethyl-7H-pyrrolo[2,3-c]pyridazine-3-carboxamide], the pIC50 is under 5.70.

For `CO[C@H]1CN(c2ccc3c(c2)OC[C@H](NC(=O)c2sc4nc(C)ccc4c2N)C3)C[C@H]1N` [Example 122, 3-amino-N-[(3R)-7-[(3R,4S)-3-amino-4-methoxypyrrolidin-1-yl]-3,4-dihydro-2H-1-benzopyran-3-yl]-6-methylthieno[2,3-b]pyridine-2-carboxamide], the pIC50 was 7.30 to 9.00.

With `CCO[C@H]1CN(c2ccc3c(c2)OC[C@H](NC(=O)c2sc4nc(C)ccc4c2N)C3)C[C@H]1N` [Example 152], the pIC50 was 7.30 to 9.00.

As for `Cc1ccc2c(N)c(C(=O)N[C@H]3COc4cc(N5CC[C@H]6CNC[C@H]65)ccc4C3)sc2n1` [Example 166, N-[(3R)-7-[(3aS,6aS)-octahydropyrrolo[2,3-c]pyrrol-1-yl]-3,4-dihydro-2H-1-benzopyran-3-yl]-3-amino-6-methylthieno[2,3-b]pyridine-2-carboxamide], the pIC50 was 7.30 to 9.00.

For the compound `COC[C@H]1CNCCN1c1ccc2c(c1)OC[C@H](NC(=O)c1sc3nc(C)ccc3c1N)C2` [Example 156, 3-amino-N-[(3R)-7-[(21)-2-(methoxymethyl)piperazin-1-yl]-3,4-dihydro-2H-1-benzopyran-3-yl]-6-methylthieno[2,3-b]pyridine-2-carboxamide], the pIC50 was 6.70 to 7.30.

For the compound `COC[C@@H]1CN(c2ccc3c(c2)OC[C@H](NC(=O)c2sc4nc(C)ccc4c2N)C3)CCN1` [Example 158, 3-amino-N-[(3R)-7-[(3S)-3-(methoxymethyl)piperazin-1-yl]-3,4-dihydro-2H-1-benzopyran-3-yl]-6-methylthieno[2,3-b]pyridine-2-carboxamide], the pIC50 was 6.70 to 7.30.

`Cc1ccc2c(N)c(C(=O)N[C@H]3COc4c(F)c(N5CC6CCC(C5)N6)cc(F)c4C3)oc2n1` [Example 172, 3-amino-N-[(3R)-7-{3,8-diazabicyclo[3.2.1]octan-3-yl}-5,8-difluoro-3,4-dihydro-2H-1-benzopyran-3-yl]-6-methylfuro[2,3-b]pyridine-2-carboxamide]: the pIC50 is 5.70 to 6.70.
